Test results as given in ChEMBL document CHEMBL1201862, “PubChem BioAssay data set” (2004).
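Method: 48-hour compound exposure of cells in 96-well plates, five concentrations, linear interpolation of endpoints. The concentration for 50% growth inhibition is given as GI50.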 Calls of active or inactive are those of the source. Rule as the data show it: active = GI50 up to about 1.1 µM and inactive = higher.

What was measured:
Test in all cases: DTP human tumour cell line panel, 48 h
K562 = test system: K562
HT-29 = test system: HT-29
DU-145 = test system: DU-145
EKVX = test system: EKVX
MDA-MB-231 = test system: MDA-MB-231
MDA-MB-435 = test system: MDA-MB-435
NCI-H23 = test system: NCI-H23
OVCAR-8 = test system: OVCAR-8
Hs-578T = test system: Hs-578T
NCI-H226 = test system: NCI-H226
KM12 = test system: KM12
A549 = test system: A549
HL-60 = test system: HL-60
HCC 2998 = test system: HCC 2998
IGROV-1 = test system: IGROV-1
CAKI-1 = test system: CAKI-1
SK-OV-3 = test system: SK-OV-3
HCT-116 = test system: HCT-116
CCRF-CEM = test system: CCRF-CEM

Row | SMILES | GI50 (K562) | GI50 (HT-29) | GI50 (DU-145) | GI50 (EKVX) | GI50 (MDA-MB-231) | GI50 (MDA-MB-435) | GI50 (NCI-H23) | GI50 (OVCAR-8) | GI50 (Hs-578T) | GI50 (NCI-H226) | GI50 (KM12) | GI50 (A549) | GI50 (HL-60) | GI50 (HCC 2998) | GI50 (IGROV-1) | GI50 (CAKI-1) | GI50 (SK-OV-3) | GI50 (HCT-116) | GI50 (CCRF-CEM)
1 | Cc1cc(NS(=O)(=O)c2ccc(NC(=O)c3cccc4c(NNc5ccc(S(=O)(=O)N=C(N)N)cc5)c5ccccc5nc34)cc2)no1 | 36.8 µM (inactive) | 30.5 µM (inactive) | 51.5 µM (inactive) | 19.7 µM (inactive) | 44.2 µM (inactive) | 92.9 µM (inactive) | 74.5 µM (inactive) | 51.1 µM (inactive) | 27.4 µM (inactive) | 25.2 µM (inactive) | 36 µM (inactive) | > 100 µM (inactive) | 26.7 µM (inactive) | 30.5 µM (inactive) | 45.6 µM (inactive) | > 100 µM (inactive) | 54.2 µM (inactive) | 40.2 µM (inactive) | 29 µM (inactive)
2 | CCCCCCCCCCCCCCCCCCOCC(O)COP(=O)(O)OCC1OC(n2ccc(N)nc2=O)C(O)C1O (stereo not drawn) | 28.2 µM (inactive) | 22.8 µM (inactive) | 98.2 µM (inactive) | 61.8 µM (inactive) | 25.8 µM (inactive) | 45.4 µM (inactive) | 26.1 µM (inactive) | 6.31 µM (inactive) | 36.4 µM (inactive) | > 100 µM (inactive) | 17.1 µM (inactive) | 3.85 µM (inactive) | 9.84 µM (inactive) | 22 µM (inactive) | 9.62 µM (inactive) | 23.1 µM (inactive) | 66.8 µM (inactive) | 10.9 µM (inactive) | 0.56 µM (active)
3 | O=C1O/C(=C(/Br)c2ccc(Cl)c(Cl)c2)c2ccccc21 | > 10 µM (inactive) | > 10 µM (inactive) | > 10 µM (inactive) | > 10 µM (inactive) | > 10 µM (inactive) | > 10 µM (inactive) | > 10 µM (inactive) | > 10 µM (inactive) | > 10 µM (inactive) | > 10 µM (inactive) | > 10 µM (inactive) | > 10 µM (inactive) | > 10 µM (inactive) | > 10 µM (inactive) | > 10 µM (inactive) | > 10 µM (inactive) | > 10 µM (inactive) | > 10 µM (inactive) | > 10 µM (inactive)
4 | [O-][n+]1onc(-c2ccccc2)c1CN1CCOCC1 | 51.2 µM (inactive) | > 100 µM (inactive) | > 100 µM (inactive) | > 100 µM (inactive) | > 100 µM (inactive) | > 100 µM (inactive) | > 100 µM (inactive) | > 100 µM (inactive) | 68.1 µM (inactive) | > 100 µM (inactive) | > 100 µM (inactive) | > 100 µM (inactive) | 20.7 µM (inactive) | > 100 µM (inactive) | 80 µM (inactive) | > 100 µM (inactive) | > 100 µM (inactive) | > 100 µM (inactive) | 22.8 µM (inactive)
5 | O=S(=O)(O)c1cccc2cccc(/N=N/c3c(O)ccc4ccccc34)c12 | > 100 µM (inactive) | > 100 µM (inactive) | > 100 µM (inactive) | 92.3 µM (inactive) | > 100 µM (inactive) | > 100 µM (inactive) | > 100 µM (inactive) | > 100 µM (inactive) | > 100 µM (inactive) | > 100 µM (inactive) | > 100 µM (inactive) | > 100 µM (inactive) | > 100 µM (inactive) | > 100 µM (inactive) | 31.9 µM (inactive) | > 100 µM (inactive) | > 100 µM (inactive) | > 100 µM (inactive) | > 100 µM (inactive)
6 | Cc1cnc2nc(-c3cccc4ccccc34)cc(O)c2c1 | 0.000462 µM (active) | 0.000412 µM (active) | 0.00394 µM (active) | 0.00282 µM (active) | 0.00493 µM (active) | 0.000211 µM (active) | 0.00179 µM (active) | 0.00251 µM (active) | 0.00107 µM (active) | 0.01 µM (active) | 0.000551 µM (active) | 0.0014 µM (active) | 0.000232 µM (active) | 0.000723 µM (active) | 0.00552 µM (active) | 0.000646 µM (active) | 0.000706 µM (active) | 0.000652 µM (active) | 0.000692 µM (active)
7 | Cc1occc1C(=S)Nc1ccc(Cl)c(/C=N/OC(C)(C)C)c1 | 31.6 µM (inactive) | 13.7 µM (inactive) | 19.7 µM (inactive) | 18.4 µM (inactive) | 19.7 µM (inactive) | 16.6 µM (inactive) | 15.3 µM (inactive) | 18.9 µM (inactive) | 19.8 µM (inactive) | 16.9 µM (inactive) | 15.3 µM (inactive) | 16.6 µM (inactive) | 17.3 µM (inactive) | 16.6 µM (inactive) | 23.8 µM (inactive) | 17.2 µM (inactive) | 23 µM (inactive) | 13.5 µM (inactive) | 17.8 µM (inactive)
